# Laboratory results taken from US20150290099A1, “NOVEL PSEUDOCERAMIDE COMPOUND AND PRODUCTION METHOD FOR SAME” (AMOREPACIFIC CORPORATION, priority 2012, published 2015).
# Legend:
# artificial skin = test: Quantitative analysis of ceramide in artificial skin; type: cell-based; design: C18SM: unit not given here; settings: for C18SM / ceramide in artificial skin (ng/mg skin): artificial skin, LC analysis, corrected for skin weight
# Description: Artificial skin was weighed and put in a 4-mL glass vial. After adding 2400 μL of CHCl3/MeOH (=½) and 100 μL of IS STD, the artificial skin was cut into small pieces with scissors. After sonication for 30 minutes, solutions mixing sodium lauryl sulfate (SLS) to each of dodecanoic acid 2-dodecanoylamino-3-hydroxy-2-hydroxymethyl-propyl ester obtained from the Example 2, phosphate buffered saline (PBS), octyl methoxycinnamate (OMC) and PC-104, as described in Table 2, were filtered through a PTFE syringe filter, and 1250 μL of each filtrate was transferred to an EP tube.
# After completely removing the solvent using a speed vacuum dryer, the residue was redissolved by adding 100 μL of an analytical mobile phase. After centrifugation, only the supernatant was taken and analyzed after transferring to an LC vial. The concentration of ceramide was corrected for the weight of the artificial skin.
# [1] = test system: Keraskin™ artificial skin; test: Recovery of damaged artificial skin (measurement of transepithelial electrical resistance); type: cell-based; settings: for Change of TEER (%): Keraskin artificial skin, TEER after 24 h post-incubation divided by the initial value
# Description: Transepithelial electrical resistance was measured in order to test recovery of damaged artificial skin by the compound of Example 2. Dodecanoic acid 2-dodecanoylamino-3-hydroxy-2-hydroxymethyl-propyl ester obtained from the Example 2 and phosphate buffered saline (PBS), octyl methoxycinnamate (OMC) and PC-104 were tested for comparison.
# Transepithelial electrical resistance (TEER) of Keraskin™ purchased from MCTT was measured after 22 hours of pre-incubation. After placing the Keraskin™ on a 6-well plate, 400 μL of a medium was added in an insert and 5 mL of the medium was added outside the insert such that an even level was achieved inside and outside the insert. Then, measurement was made with the electrode tips of a resistance meter inside and outside the insert. TEER was measured for all the inserts, prior to the test, after treatment with the substances of Example 2 and Comparative Examples 1-3 and 24 hours after post-incubation. The TEER after the post-incubation was divided by the initial value to calculate the change in %.
# [2] = test substance mixed with sodium lauryl sulfate (SLS)
SMILES,C18SM (artificial skin; PBS instead of SLS),ceramide in artificial skin (ng/mg skin) (artificial skin; PBS instead of SLS),C18SM (artificial skin; [2]),ceramide in artificial skin (ng/mg skin) (artificial skin; [2]),Change of TEER (%) [1] [%],"ceramide content in the artificial skin, in words (artificial skin; compared with PC-104)","effect of recovering damaged artificial skin (TEER), in words ([1]; compared with PC-104)"
"CCCCC(CC)COC(=O)C=Cc1ccc(OC)cc1 (stereo not shown) [Comparative Example 2, octyl methoxycinnamate]",1747.3,990.8,843.6,758.3,30.9,,
CCCCCCCCCCCCCCCC(=O)N(CCO)CC(O)CN(CCO)C(=O)CCCCCCCCCCCCCCC [Comparative Example 3],,,1141.1,995.5,35.7,,
"CCCCCCCCCCCC(=O)NC(CO)(CO)COC(=O)CCCCCCCCCCC [Example 2, dodecanoic acid 2-dodecanoylamino-3-hydroxy-2-hydroxymethyl-propyl ester]",,,1811.5,1152.4,70.8,higher than that for PC-104,higher than the conventionally used PC-104
